# Experimental data reported in US8455648B2, “1-(7-(hexahydropyrrolo [3,4-c] pyrrol-2 (1H)-yl) quinolin-4-yl) -3- (pyrazin-2-yl) urea derivatives and related compounds as glycogen synthase kinase 3 (GSK-3)” (Abbott GmbH & Co. KG, priority 2008, dated 2013).
# Target: T1, human Glycogen Synthase Kinase-3 beta (hGSK-3β) (Homo sapiens, UniProt P49841)
# T1 construct: purchased Upstate cell signaling solutions
# Assay: Biochemical hGSK-3beta assay (33P-ATP phosphorylation of biotinylated peptide substrate)
# Conditions: 10 μM ATP, 1 μM substrate, 30 minutes at room temperature; read-out: GSK-3β IC50
# Procedure: Methods—Biochemical hGSK-3Beta Assay
# Compounds were tested for their ability to inhibit human Glycogen Synthase Kinase-3 beta (hGSK-3β) to phosphorylate biotin-[…](pS)EDEEE. Compounds were incubated with 0.5 μCi 33P-ATP, 10 μM ATP, 0.0125U hGSK-3β (Upstate cell signaling solutions) and 1 μM substrate (biotin-[…](pS)EDEEE) in 50 mM HEPES, 10 mM MgCl2, […], 1 mM DTT, 0.0075% Triton, 2% DMSO (total volume 50 μL) for 30 minutes at room temperature. The incubation was stopped by addition of an equal volume of 100 mM EDTA, 4M NaCl. 80 μL of this mixture was added to streptavidin-coated Flashplates (PerkinElmer). Following a wash step, 33P incorporation was quantified on a MicroBeta microplate liquid scintillation counter (PerkinElmer). IC50s were determined by fitting a sigmoidal dose-response curve to the counts obtained at the different concentrations in GraphPad Prism.
# T1 sequence (P49841 whole entry): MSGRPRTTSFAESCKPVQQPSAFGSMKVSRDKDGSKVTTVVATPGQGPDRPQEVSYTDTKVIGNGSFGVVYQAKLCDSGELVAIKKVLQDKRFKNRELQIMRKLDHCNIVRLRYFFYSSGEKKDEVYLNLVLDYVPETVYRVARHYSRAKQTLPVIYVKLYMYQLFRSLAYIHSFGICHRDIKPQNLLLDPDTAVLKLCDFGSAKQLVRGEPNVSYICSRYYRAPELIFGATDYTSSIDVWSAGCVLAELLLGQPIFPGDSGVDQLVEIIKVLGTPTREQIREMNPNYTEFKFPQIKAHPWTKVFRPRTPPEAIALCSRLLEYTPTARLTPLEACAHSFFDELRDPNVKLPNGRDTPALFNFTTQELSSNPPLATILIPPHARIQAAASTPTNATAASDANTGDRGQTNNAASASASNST
row,SMILES,IC50
1,"CC(C)(C)OC(=O)N1C[C@@H]2CN(c3ccc4c(NC(=O)Nc5cnccn5)ccnc4c3)C[C@@H]2C1 [Example 1, (3aR,6aS)-Tert-butyl 5-(4-(3-pyrazin-2-ylureido)quinolin-7-yl)-hexahydropyrrolo[3,4-c]pyrrole-2(1H)-carboxylate]",100 to 10000 nM
2,"COc1ccc2c(NC(=O)Nc3cncc(N4C[C@H]5CN(C(=O)OC(C)(C)C)C[C@H]5C4)n3)ccnc2c1 [Example 3, (3aR,6aS)-tert-butyl 5-(6-(3-(7-methoxyquinolin-4-yl)ureido)pyrazin-2-yl)-hexahydropyrrolo[3,4-c]pyrrole-2(1H)-carboxylate]",100 to 10000 nM
3,"O=C(Nc1cnccn1)Nc1ccnc2cc(N3C[C@@H]4C[C@H]3CN4)ccc12 [Example 7, 1-(7-((1S,4S)-2,5-Diazabicyclo[2.2.1]heptan-2-yl)quinolin-4-yl)-3-(pyrazin-2-yl)urea]",100 to 10000 nM
4,"COc1ccc2c(NC(=O)Nc3cccc(N4CC5COCC5C4)n3)ccnc2c1 (stereo not shown) [Example 9, 1-(6-(Dihydro-1H-furo[3,4-c]pyrrol-5(3H,6H,6aH)-yl)pyridin-2-yl)-3-(7-methoxyquinolin-4-yl)urea]",< 100 nM
5,"COc1ccc2c(NC(=O)Nc3cccc(N4C[C@@H]5C[C@H]4CO5)n3)ccnc2c1 [Example 10, 1-(6-((1S,4S)-2-Oxa-5-azabicyclo[2.2.1]heptan-5-yl)pyridin-2-yl)-3-(7-methoxyquinolin-4-yl)urea]",< 100 nM
6,"CC(C)(C)OC(=O)N1C[C@@H]2C[C@H]1CN2c1ccc2nccc(NC(=O)Nc3cnccn3)c2c1 [Example 11, (1S,4S)-Tert-butyl 5-(4-(3-pyrazin-2-ylureido)quinolin-6-yl)-2,5-diazabicyclo[2.2.1]heptane-2-carboxylate]",100 to 10000 nM
7,"O=C(Nc1cnccn1)Nc1ccnc2cc(N3CC4CCNC4C3)ccc12 (stereo not shown) [Example 12, 1-(7-(Hexahydropyrrolo[3,4-b]pyrrol-5(1H)-yl)quinolin-4-yl)-3-(pyrazin-2-yl)urea]",100 to 10000 nM
